Experiments:
[1] = system: MDA-MB-231 TNBC cells; assay: Cell survival assay (MTT or trypan blue); conditions: Homo sapiens; MDA-MB-231 cells, 72 hours; for SMI #9-GNP based on the concentration of SMI #9
Method: (§1) MDA-MB-231, SUM-1315, MDA-MB-468, and HCC1937 TNBC cells (ATCC) were maintained in Dulbecco's Modified Eagle's Medium (DMEM)/F-12 supplemented with 5% fetal bovine serum. Nontransformed MCF10A human breast cells were maintained in DMEM/F12 supplemented with 5% horse serum, 20 ng/ml epidermal growth factor, 10 μg/ml insulin, 0.5 μg/ml hydrocortisone and 0.10 μg/ml cholera toxin. Sensitivity to SMI #9-GNP was assessed by trypan blue staining or MTT colorimetric assay. Briefly, cells were seeded in 96-well plates at a density of 5-7×10^3 cells per well and allowed to attach overnight. Cells were treated with free SMI #9, SMI #9-GNP, or blank-GNP at various concentrations in triplicates for 72 hours. In some cases, treatments included various doses of cisplatin singly or in combination with SMI #9-GNP. On the final day, medium was replaced with drug free medium, incubated with MTT at 37° C. for 2-3 hours. The medium and MTT were removed, and the MTT-formazan crystals dissolved in 200 μl of 0.04 N HCl/isopropanol, and absorbance measured at 570 nm using the Synergy 2 multi-well plate reader. Alternately, cultures were trypsinized and cell viability determined by trypan blue exclusion using the Biorad TC10 automatic cell counter. At least two to three independent experiments were performed for each cell line.

[2] = system: SUM1315 TNBC cells; assay: Cell survival assay (MTT or trypan blue); conditions: 72 hours, for SMI #9-GNP based on the concentration of SMI #9
Method: as §1

[3] = system: HCC1937 TNBC cells; assay: Cell survival assay (MTT or trypan blue); format: cell-based; conditions: Homo sapiens, 72 hours
Method: as §1

[4] = system: MDA-MB-468 TNBC cells; assay: Cell survival assay (MTT or trypan blue); format: cell-based; conditions: Homo sapiens; MDA-MB-468 cells, 72 hours
Method: as §1

[5] = system: nontransformed MCF10A human breast cells; assay: Cell survival assay (MTT or trypan blue); format: cell-based; conditions: 72 hours
Method: as §1

[6] = system: HCC1937 cells; assay: Mitochondrial membrane potential, JC-1 assay; format: cell-based; conditions: overnight, 1 μM
Method: (§2) The impact of free SMI #9 or SMI #9-GNP on mitochondrial membrane potential (Δψm) on SUM1315 and HCC1937 TNBC cells was assessed using JC-1 (Mitocapture, Biovision, Mountainview, Calif.), a potentiometric green fluorescent dye that shifts to red fluorescence within mitochondria with a normal negative […]. Briefly, cells were incubated with the MitoCapture reagent for 15 min at 37° C. and imaged by fluorescence microscopy as described in Shekhar M P et al., Cancer Biol Ther 2008; 7:1774-82.
(§3) The percent of cells showing punctate red fluorescence or diffuse green fluorescence were scored by counting three-five fields of 50-100 cells in each field. Each experiment was repeated at least three times and results expressed as mean±S.E. Statistical significance of differences was determined by Student's t test.

[7] = system: SUM1315 cells; assay: Mitochondrial membrane potential, JC-1 assay; format: cell-based
Method: as §2, §3

[8] = system: PARP-1 in TNBC cells; assay: Western blot of PARP-1 steady-state levels; format: cell-based; conditions: TNBC cell lines, 24 hours
Method: (§4) Breast cancer cells treated with vehicle, free SMI #9, blank- or SMI #9-GNP (1-5 μM) for 24-96 hours were lysed, and aliquots of lysates containing 25 μg of protein were subjected to SDS-PAGE and western blot analysis of PARP-1 (Cell Signaling), Rad6, LC3-I/II (Cell Signaling), and […] (Sigma). To determine LC3 subcellular localization, control or SMI #9-GNP treated cells were fixed with methanol:acetone (1:1, v/v) and stained with anti-LC3 antibody. Slides were incubated with FITC-conjugated secondary antibody, counterstained with DAPI and analyzed by fluorescence microscopy.

[9] = system: LC3-I/LC3-II in MDA-MB-231 cells; assay: Western blot of LC3-I/II; format: cell-based; conditions: 24 hours
Method: as §4

[10] = system: LC3-I/LC3-II in SUM1315 cells; assay: Western blot of LC3-I/II; format: cell-based; conditions: 24 h
Method: as §4

[11] = in vivo; set-up: species or system mice; conditions: mouse, iv, 5 mg/kg
Method: To determine release of conjugated drugs and metabolic stability of GNP conjugates, mice were given a single i.v. injection of SMI #9-GNP at 5 mg/kg body wt. Blood samples were collected at 0, 5 min, 15 min, 30 min, 1 h, 2 h, 4 h, 8 h, and 24 h post-injection. Similarly, to assess the stability of SMI #9 as a free drug, a single i.v. injection of SMI #9 at 5 mg/kg was injected and blood samples collected. Concentrations of SMI #9 in plasma were determined by tandem LC-MS/MS and non-compartmental analysis with WinNonlin v5.2 (Pharsight).

[12] = system: SUM1315 triple negative breast cancer cell derived tumors; assay: Orthotopic tumor growth assay; format: in vivo, mice; conditions: SUM1315 xenografts, intraperitoneal injection at 5 mg/kg
Method: MDA-MB-468 or SUM1315 triple negative breast cancer cells (1×10^6 cells suspended in 0.1 ml Matrigel) were injected subcutaneously into the fatpads of fourth and fifth inguinal mammary glands of female nude mice. […] Control vehicle or SMI #9 free drug was administered intratumorally whereas blank-GNP and SMI #9-GNP were administered intraperitoneally. Treatments were given every fourth day. Tumor volumes and body weights were measured twice a week and mice were monitored for weight loss, gastrointestinal distress, activity, body posture, and food/water intake. Mice were sacrificed at 35-44 days postimplantation. Tumors were harvested and weighed.

[13] = system: MDA-MB-468 or SUM1315 triple negative breast cancer cell derived tumors; assay: Orthotopic tumor growth assay, tumor line not given; format: in vivo; conditions: female nude mice, 1.5 mg/kg intratumorally every fourth day
Method: MDA-MB-468 or SUM1315 triple negative breast cancer cells (1×10^6 cells suspended in 0.1 ml Matrigel) were injected subcutaneously into the fatpads of fourth and fifth inguinal mammary glands of female nude mice. Mice were randomized and treatments with SMI #9-GNP (0.285 mg/kg body wt), SMI #9 free drug (1.5 mg/kg body wt.), blank-GNP (volumes equivalent to SMI #9-GNP), or vehicle control were initiated upon detection of palpable lesions. Control vehicle or SMI #9 free drug was administered intratumorally whereas blank-GNP and SMI #9-GNP were administered intraperitoneally. Treatments were given every fourth day. Tumor volumes and body weights were measured twice a week and mice were monitored for weight loss, gastrointestinal distress, activity, body posture, and food/water intake. Mice were sacrificed at 35-44 days postimplantation. Tumors were harvested and weighed.

Nc1nc(COC(=O)c2ccc([N+](=O)[O-])cc2)nc(Nc2ccccc2)n1 [SMI #9]
GI50 [1]: 5 µM | GI50 [2]: 6 µM | GI50 [3]: 1.8 µM | GI50 [4]: 3 µM | sensitivity (growth inhibition) [5]: unaffected | JC-1 punctate red fluorescence [6]: reduced the punctate red fluorescence staining | mitochondrial integrities [7]: similarly and dramatically compromised | JC-1 punctate red fluorescence ([7]; overnight, 1 μM): reduced the punctate red fluorescence staining | PARP-1 processing / steady-state levels [8]: stabilization/hyperactivation of PARP-1 | LC3-I and LC3-II levels [9]: downregulated both LC3-I and LC3-II | changes in LC3-I processing [10]: not readily apparent | Cmax [11]: 409 nM | Tmax [11]: ~5 min | tumor growth [12]: no significant change in tumor growth | tumor growth [13]: tumor growth inhibition compared to controls
